In assay [1] the target is T1, C-terminal catalytic domain of MALT1 (amino acid residues 329-824) (Homo sapiens, UniProt Q9UDY8).
T1 construct: C-terminal catalytic domain of MALT1 (amino acid residues 329-824)
T1 sequence (Q9UDY8 329-824): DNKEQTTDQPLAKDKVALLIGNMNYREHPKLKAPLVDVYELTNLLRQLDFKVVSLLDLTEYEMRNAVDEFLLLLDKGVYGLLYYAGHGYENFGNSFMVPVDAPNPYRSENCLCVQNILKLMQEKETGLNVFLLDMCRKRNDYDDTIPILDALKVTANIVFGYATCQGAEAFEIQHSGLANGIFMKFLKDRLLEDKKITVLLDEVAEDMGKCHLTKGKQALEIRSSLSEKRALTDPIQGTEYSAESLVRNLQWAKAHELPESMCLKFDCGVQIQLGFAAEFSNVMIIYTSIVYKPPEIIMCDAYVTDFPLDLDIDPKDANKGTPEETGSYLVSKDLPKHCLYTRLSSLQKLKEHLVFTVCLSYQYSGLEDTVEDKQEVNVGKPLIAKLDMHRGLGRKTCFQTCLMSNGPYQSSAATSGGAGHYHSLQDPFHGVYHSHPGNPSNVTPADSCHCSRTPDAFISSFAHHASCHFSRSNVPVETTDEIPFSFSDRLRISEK
Kind of assay: MALT1 protease inhibitory activity (enzyme activity inhibition assay, fluorogenic substrate). Type of assay: biochemical. The conditions noted are these: substrate Ac-Leu-Arg-Ser-Arg-AMC 50 µM; 30°C for 2 hours; fluorescence. As to the method:
To evaluate the enzyme inhibitory activity of a test substance against MALT1, an enzyme activity inhibition assay was conducted using the C-terminal catalytic domain of MALT1 (amino acid residues 329-824).
A test substance was prepared at a concentration of 10 mM in dimethyl sulfoxide (DMSO) and further diluted with DMSO to obtain final concentrations of 1000, 100, 10, 1, and 0.1 µM. The solutions were further diluted 25-fold with an assay buffer to prepare final test substance solutions. The composition of the assay buffer was 200 mM Tris/HCl HEPES (pH 7.5), 0.8 M Na citrate, 100 µM DTT, and 0.05% CHAPS.
The test substance solution was added to a 384-well black plate (#6007270, PerkinElmer) in an amount of 5 µL per well (n = 2; final concentrations of 10000, 1000, 100, 10, 1, and 0.1 nM), followed by the addition of 10 µL of MALT1 enzyme and finally 5 µL of a substrate solution (Ac-Leu-Arg-Ser-Arg-AMC, Peptide Institute, Inc.; final concentration in the reaction mixture: 50 µM), and after stirring, the mixture was allowed to react at 30°C for 2 hours. Fluorescence (excitation: 380 nm, emission: 460 nm) was detected using a microplate reader (EnVision, PerkinElmer).
Using the measurement data, non-linear regression analysis based on a 2-parameter logistic model was performed with Spotfire (PerkinElmer) to calculate IC50.

The test system of assay [2] is HEK293/API2-MALT1/NF-κB reporter cells. Nature of the assay: Inhibition of reporter activity in HEK293/API2-MALT1/NF-κB reporter cells. Type of assay: cell-based. The settings on record: Homo sapiens, 24 hours with test substance, One-glo luminescence. As to the method: The API2-MALT1 fusion protein, expressed in MALT lymphoma, is known to constitutively activate the NF-κB pathway. To evaluate the inhibitory effect of the test substance on the NF-κB pathway in cells, a reporter activity inhibition test was conducted using HEK293/API2-MALT1/NF-κB reporter cells.
The test substance was prepared at a concentration of 10 mM in dimethyl sulfoxide (DMSO) and further diluted with DMSO to each of concentrations of 1000, 300, 100, and 10 µM. The solutions were further diluted 100-fold with DMEM medium containing 10% FBS to prepare test substance solutions.
HEK293/API2-MALT1/NF-κB reporter cells and 293T/CMV reporter cells (used as a negative control) were cultured in DMEM medium containing 10% FBS. Into a 384-well plate (#781080, Greiner), 6,000 cells were seeded in 30 µL per well, and after culturing for 24 hours, 3.3 µL of the adjusted test substance solution was added thereto (final concentrations: 10,000, 1,000, 100, and 10 nM). After culturing for 24 hours at 37°C in a 5% CO2 incubator, 33 µL of One-glo (Promega) was added to each well. After a 5-minute incubation at room temperature, luminescence was detected using a microplate reader (EnVision, PerkinElmer).
Using the measurement data, non-linear regression analysis was performed with the SAS system (SAS Institute Inc.) to estimate IC50.

Assay [3] has as its system OCI-Ly3 cell lines. Nature of the assay: Proliferation inhibition test, ABC-DLBCL cell line OCI-Ly3. Type of assay: cell-based. The conditions noted are these: Homo sapiens; OCI-Ly3 (ABC-DLBCL, NF-κB pathway-dependent); 96 hours; Cell Counting Kit-8; read-out: Proliferation inhibitory activity against OCI-Ly3 IC50. The procedure:
(§1) In ABC-DLBCL cell lines, the NF-κB pathway is constitutively activated due to mutations in the B-cell receptor pathway. To evaluate the proliferation inhibitory activity associated with the MALT1 inhibitory activity of the test substance, a proliferation inhibition test was conducted using ABC-DLBCL cell lines.
(§2) The test substance was prepared at a concentration of 10 mM in dimethyl sulfoxide (DMSO) and further diluted with DMSO to each of concentrations of 3,000, 1,000, 300, 100, 30, and 10 µM. The solutions were further diluted 100-fold with IMDM medium containing 10% FBS to prepare test substance solutions.
(§3) OCI-Ly3 cell lines (ABC-DLBCL, NF-κB pathway-dependent) were cultured in IMDM containing 10% FBS, and SU-DHL-4 cell lines (GCB-DLBCL, NF-κB pathway-independent, used as a negative control) were cultured in RPMI-1640 containing 10% FBS. Into a 96-well plate, 2,000 cells of the OCI-Ly3 cell line and 4,000 cells of the SU-DHL-4 cell line were seeded in 100 µL per well, and 11 µL of the adjusted test substance solution was added thereto (final concentrations: 10,000, 3,000, 1,000, 300, 100, 30, and 10 nM). After 96 hours of incubation at 37°C in a 5% CO2 incubator, 10 µL of Cell Counting Kit-8 (Dojindo Laboratories) was added to each well. After 4 hours of incubation at 37°C, absorbance at 450 nm was detected using a microplate reader (EnVision, PerkinElmer).
(§4) Using the measurement data, non-linear regression analysis based on a 2-parameter logistic model was performed with Spotfire (PerkinElmer) to estimate IC50 values.

For assay [4], the system named is SU-DHL-4 cell lines. Kind of assay: Proliferation inhibition test, GCB-DLBCL cell line SU-DHL-4 (negative control line). The format is cell-based. The settings on record: Homo sapiens; SU-DHL-4 (GCB-DLBCL, NF-κB pathway-independent, negative control); 96 hours; Cell Counting Kit-8; read-out: Proliferation inhibitory activity against SU-DHL-4 IC50. The procedure: as §1, §2, §3, §4

This is an account of results in patent EP4772507A1, “AZAINDOLE COMPOUND AND MEDICAL DRUG” (Nippon Shinyaku Co., Ltd., priority 2023, dated 2025).

`C[C@@H]1C[C@H](C(=O)c2cn(C)c3nc(-n4nccn4)c(Cl)cc23)CCN1c1ncncc1Br` (racemic) [Example 33, [(2RS,4RS)-1-(5-bromopyrimidin-4-yl)-2-methylpiperidin-4-yl][5-chloro-1-methyl-6-(2H-1,2,3-triazol-2-yl)-1H-pyrrolo[2,3-b]pyridin-3-yl]methanone]: the IC50 in assay [1] was 10 nM; in assay [2], 640 nM; in assay [3], 790 nM; in assay [4] it was over 10000 nM.

On to `C[C@@H]1C[C@H](C(=O)c2cn(C)c3nc(-n4nccn4)c(Cl)cc23)CCN1c1ccc(F)cc1N` (racemic) [Example 34, [(2RS,4RS)-1-(2-amino-4-fluorophenyl)-2-methylpiperidin-4-yl][5-chloro-1-methyl-6-(2H-1,2,3-triazol-2-yl)-1H-pyrrolo[2,3-b]pyridin-3-yl]methanone], for which the IC50 in assay [1] was 13 nM; in assay [2] it was 200 nM; in assay [3], 520 nM; in assay [4] it was over 10000 nM.

As for `C[C@@H]1C[C@H](C(=O)c2c[nH]c3nc(C(=O)N4CCNCC4)c(Cl)cc23)CCN1c1ncc(F)cc1Cl` (racemic) [Example 35, {5-chloro-3-[(2RS,4RS)-1-(3-chloro-5-fluoropyridin-2-yl)-2-methylpiperidine-4-carbonyl]-1H-pyrrolo[2,3-b]pyridin-6-yl}(piperazin-1-yl)methanone], the IC50 in assay [1] worked out at 37 nM; in assay [2] it was 390 nM; in assay [3] it was 630 nM; in assay [4], 9500 nM.

As to `C[C@@H]1C[C@H](C(=O)c2cn(C)c3nc(S(=O)(=O)N4CCNCC4)c(Cl)cc23)CCN1c1ncc(F)cc1Cl` (racemic) [Example 36, [(2RS,4RS)-1-(3-chloro-5-fluoropyridin-2-yl)-2-methylpiperidin-4-yl][5-chloro-1-methyl-6-(piperazin-1-ylsulfonyl)-1H-pyrrolo[2,3-b]pyridin-3-yl]methanone], the IC50 in assay [1] came out at 20 nM; in assay [2] it was 280 nM; in assay [3], 410 nM; in assay [4], 2500 nM.

In the case of `C[C@@H]1CC(C(=O)c2cn(CCO)c3nc(-n4nccn4)c(Cl)cc23)C[C@@H](C)N1c1ncc(F)cc1I` (stereo partly drawn) [Example 4, [5-chloro-1-(2-hydroxyethyl)-6-(2H-1,2,3-triazol-2-yl)-1H-pyrrolo[2,3-b]pyridin-3-yl][(2R,6R)-1-(5-fluoro-3-iodopyridin-2-yl)-2,6-dimethylpiperidin-4-yl]methanone], the IC50 in assay [2] was 230 nM; in assay [3], 450 nM; in assay [4] it was 7200 nM.

Take `CCn1cc(C(=O)c2cnn(-c3cncc4c(F)cccc34)c2C(F)(F)F)c2cc(Cl)c(-c3ncccn3)nc21` [Example 13, [5-chloro-1-ethyl-6-(pyrimidin-2-yl)-1H-pyrrolo[2,3-b]pyridin-3-yl][1-(8-fluoroisoquinolin-4-yl)-5-(trifluoromethyl)-1H-pyrazol-4-yl]methanone]: the IC50 worked out at 15 nM in assay [1], 62 nM in assay [2], 110 nM in assay [3] and 2000 nM in assay [4].

On to `C[C@@H]1CC(C(=O)c2cn(CCCO)c3nc(-n4nccn4)c(Cl)cc23)C[C@@H](C)N1c1ncc(F)cc1I` (stereo partly drawn) [Example 15, [5-chloro-1-(3-hydroxypropyl)-6-(2H-1,2,3-triazol-2-yl)-1H-pyrrolo[2,3-b]pyridin-3-yl][(2R,6R)-1-(5-fluoro-3-iodopyridin-2-yl)-2,6-dimethylpiperidin-4-yl]methanone], for which the IC50 in assay [2] turned out to be 170 nM; in assay [3] it was 720 nM; in assay [4], 8400 nM.

For the molecule `C[C@@H]1CC(C(=O)c2cn(C3CCS(=O)(=O)CC3)c3nc(-n4nccn4)c(Cl)cc23)C[C@@H](C)N1c1ncc(F)cc1I` (stereo partly drawn) [Example 19, [5-chloro-1-(1,1-dioxotetrahydro-2H-thiopyran-4-yl)-6-(2H-1,2,3-triazol-2-yl)-1H-pyrrolo[2,3-b]pyridin-3-yl][(2R,6R)-1-(5-fluoro-3-iodopyridin-2-yl)-2,6-dimethylpiperidin-4-yl]methanone], the IC50 was 92 nM in assay [1], 130 nM in assay [2], 240 nM in assay [3] and 2500 nM in assay [4].
